Measurements published in publication PMC8224972, “Thiazide and other Cl-benzenesulfonamide-bearing clinical drug affinities for human carbonic anhydrases” (PLoS ONE, 2021).
Where two headings read alike, the source gives them in different places.

What was measured:
CA I = CA I (Homo sapiens, UniProt P00915); experiment: Fluorescence-based thermal shift assay (FTSA)
Procedure: (§1) This assay quantifies protein melting temperatures (Tm) at various concentrations of the added compound. Protein unfolding is monitored by detecting the fluorescence of the solvatochromic dye 8-anilino-1-naphtalensulfonate (ANS), whose fluorescence increases upon protein unfolding [15–17]. Dependence of the protein Tm on ligand concentration was used to determine the dissociation constant Kd. In this study, FTSA samples contained 5–20 μM protein, 50 μM ANS, 0–300 μM compound in 50 mM sodium phosphate or 25 mM Hepes buffer containing 50 mM NaCl, pH 7.5, and 2% (v/v) DMSO. Experiments were performed in Corbett Rotor-Gene 6000 instrument. […] The heating rate of 1°/min was applied.
(§2) The experiments were repeated at least twice, and averages are listed.

CA VI = CA VI (Homo sapiens, UniProt P23280); experiment: Fluorescence-based thermal shift assay (FTSA)
Procedure: as §1, §2

CA VII = CA VII (Homo sapiens, UniProt P43166); experiment: Fluorescence-based thermal shift assay (FTSA)
Procedure: as §1, §2

CA VA = CA VA (Homo sapiens, UniProt P35218); experiment: Fluorescence-based thermal shift assay (FTSA)
Procedure: as §1, §2

CA III [1] = biological target: T1, CA III (Homo sapiens, UniProt P07451); experiment: Fluorescence-based thermal shift assay (FTSA)
Procedure: as §1, §2

CA VB = CA VB (Homo sapiens, UniProt Q9Y2D0); experiment: Fluorescence-based thermal shift assay (FTSA)
Procedure: as §1, §2

CA IV [2] = biological target: T2, CA IV (Homo sapiens, UniProt P22748); experiment: Fluorescence-based thermal shift assay (FTSA)
Procedure: as §1, §2

CA II [3] = biological target: T3, CA II (Homo sapiens, UniProt P00918); parameters: made in house; conditions: literature value; read-out: Literature Ki or Kd, CA II; cited from earlier work
CA XIV = CA XIV (Homo sapiens, UniProt Q9ULX7); experiment: Fluorescence-based thermal shift assay (FTSA)
Procedure: as §1, §2

CA II [4] = biological target: T3, CA II; experiment: Fluorescence-based thermal shift assay (FTSA); conditions: for Binding to CA II in words: FTSA
Procedure: as §1, §2

CA XIII [5] = biological target: CA XIII (Homo sapiens, UniProt Q8N1Q1); experiment: Fluorescence-based thermal shift assay (FTSA)
Procedure: as §1, §2

CA XII = CA XII (Homo sapiens, UniProt O43570); experiment: Fluorescence-based thermal shift assay (FTSA)
Procedure: as §1, §2

CA IX = CA IX (Homo sapiens, UniProt Q16790); experiment: Fluorescence-based thermal shift assay (FTSA)
Procedure: as §1, §2

CA IV [6] = biological target: T2, CA IV; experiment: Stopped-flow CO2 hydration activity assay (SFA); format: biochemical; parameters: made in house; conditions: 25°C, pH 7.5, 25 nM CA IV, Morrison equation; read-out: Affinity (Kd) by SFA, CA IV
Procedure: (§3) The inhibition of CA enzymatic activity by the compounds was measured by the stopped-flow CO2 hydration enzymatic activity assay (SFA) [20]. […] The IC50 measured by SFA were compared to the affinities obtained by FTSA.
(§4) The CO2 spontaneously hydrates in an aqueous solution and the pH decreases. […] The saturated CO2 solution was prepared by bubbling the CO2 gas in MilliQ water at 25°C for 1 h. Experiments were performed at 25°C using 25 mM Hepes buffer containing 50 mM NaCl, pH 7.5, 0–100 μM inhibitor and 0.4% DMSO. […] The rates of CO2 hydration were determined from the slopes of raw curves of initial absorbance change. To determine the fraction of inhibited enzyme, the spontaneous CO2 hydration rate was used as a zero, while the CA-catalyzed reaction rate in the absence of the compound—as a maximum value. Each experiment consisted of 17 compound concentrations, 16 prepared by serial ligand dilution and a last one without the compound. […] The dissociation constants Kd were determined using the Morrison equation as described by Copeland [21].

CA II [7] = biological target: T3, CA II; experiment: Stopped-flow CO2 hydration activity assay (SFA); format: biochemical; parameters: made in house; conditions: 25°C, pH 7.5, 20 nM CA II, Morrison equation; read-out: Affinity (Kd) by SFA, CA II
Procedure: as §3, §4

CA = biological target: CA; parameters: method as in doi:10.1016/S0223-5234(97)89083-6; conditions: CA isoform not identified; cited from earlier work
CA II [8] = biological target: T3, CA II; experiment: Isothermal titration calorimetry (ITC)
human CA isoforms = experiment: FTSA, summary over several CA isoforms; format: binding
Procedure: as §1, §2

CA XIII [9] = conditions: murine protein, literature value; read-out: Literature Ki or Kd, CA XIII; cited from earlier work
[10] = test system: TSC (thiazide sensitive co-transporter); parameters: method as in PMID 10894798; conditions: in the presence of 2 mM Cl-; cited from earlier work
CA III [11] = biological target: T1, CA III; parameters: made in house; conditions: literature value; read-out: Literature Ki or Kd, CA III; cited from earlier work

Sequence of CA VB (Q9Y2D0 34-317): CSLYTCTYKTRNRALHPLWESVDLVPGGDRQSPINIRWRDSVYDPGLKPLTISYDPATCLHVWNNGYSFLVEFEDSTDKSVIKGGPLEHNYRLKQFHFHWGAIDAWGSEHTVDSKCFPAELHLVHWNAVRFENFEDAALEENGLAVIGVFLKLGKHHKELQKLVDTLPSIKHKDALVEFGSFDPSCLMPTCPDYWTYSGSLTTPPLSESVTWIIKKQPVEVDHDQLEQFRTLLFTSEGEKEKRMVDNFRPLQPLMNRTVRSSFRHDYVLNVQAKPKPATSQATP
Sequence of CA I (P00915 whole entry): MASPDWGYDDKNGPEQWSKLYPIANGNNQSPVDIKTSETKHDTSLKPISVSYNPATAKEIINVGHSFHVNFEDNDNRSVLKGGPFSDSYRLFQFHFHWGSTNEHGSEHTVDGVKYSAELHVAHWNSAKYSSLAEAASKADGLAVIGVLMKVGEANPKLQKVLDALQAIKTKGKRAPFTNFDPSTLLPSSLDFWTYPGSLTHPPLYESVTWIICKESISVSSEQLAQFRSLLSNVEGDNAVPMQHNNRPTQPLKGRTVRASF
Sequence of CA XIII (Homo sapiens, UniProt Q8N1Q1) (Q8N1Q1 whole entry): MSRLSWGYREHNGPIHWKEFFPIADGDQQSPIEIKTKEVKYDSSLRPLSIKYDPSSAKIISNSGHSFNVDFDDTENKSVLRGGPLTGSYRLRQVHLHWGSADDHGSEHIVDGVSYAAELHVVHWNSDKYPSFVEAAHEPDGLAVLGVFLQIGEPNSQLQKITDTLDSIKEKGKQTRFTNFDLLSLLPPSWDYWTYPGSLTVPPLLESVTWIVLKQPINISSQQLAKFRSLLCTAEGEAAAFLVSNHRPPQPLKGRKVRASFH
Sequence of CA XII (O43570 25-354): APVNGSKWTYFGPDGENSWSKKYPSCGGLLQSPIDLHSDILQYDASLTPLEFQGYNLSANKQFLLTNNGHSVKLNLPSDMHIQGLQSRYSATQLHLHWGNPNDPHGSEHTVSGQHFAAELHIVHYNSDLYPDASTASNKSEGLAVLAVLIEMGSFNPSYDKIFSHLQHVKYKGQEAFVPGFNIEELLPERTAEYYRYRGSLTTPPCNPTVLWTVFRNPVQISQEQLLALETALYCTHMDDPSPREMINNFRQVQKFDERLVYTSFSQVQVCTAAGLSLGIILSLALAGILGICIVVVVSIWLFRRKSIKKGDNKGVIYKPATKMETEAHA
T2 sequence (P22748 19-312): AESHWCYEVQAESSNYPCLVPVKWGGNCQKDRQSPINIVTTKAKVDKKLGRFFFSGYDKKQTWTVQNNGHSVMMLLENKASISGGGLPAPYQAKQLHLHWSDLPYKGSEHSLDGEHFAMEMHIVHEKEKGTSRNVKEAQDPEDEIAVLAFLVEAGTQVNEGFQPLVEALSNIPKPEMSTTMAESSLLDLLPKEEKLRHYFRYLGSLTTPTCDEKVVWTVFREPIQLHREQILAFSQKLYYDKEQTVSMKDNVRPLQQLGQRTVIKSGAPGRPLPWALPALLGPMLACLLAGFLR
Sequence of CA XIV (Q9ULX7 16-337): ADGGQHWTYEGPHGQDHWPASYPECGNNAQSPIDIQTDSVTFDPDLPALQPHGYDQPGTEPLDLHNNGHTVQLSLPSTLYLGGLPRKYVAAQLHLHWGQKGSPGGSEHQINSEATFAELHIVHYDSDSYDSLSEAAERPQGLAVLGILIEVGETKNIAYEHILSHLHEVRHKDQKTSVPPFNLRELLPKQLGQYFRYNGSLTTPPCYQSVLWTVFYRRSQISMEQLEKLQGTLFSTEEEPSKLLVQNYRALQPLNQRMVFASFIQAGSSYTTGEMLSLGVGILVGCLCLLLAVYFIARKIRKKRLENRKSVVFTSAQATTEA
T1 sequence (P07451 whole entry): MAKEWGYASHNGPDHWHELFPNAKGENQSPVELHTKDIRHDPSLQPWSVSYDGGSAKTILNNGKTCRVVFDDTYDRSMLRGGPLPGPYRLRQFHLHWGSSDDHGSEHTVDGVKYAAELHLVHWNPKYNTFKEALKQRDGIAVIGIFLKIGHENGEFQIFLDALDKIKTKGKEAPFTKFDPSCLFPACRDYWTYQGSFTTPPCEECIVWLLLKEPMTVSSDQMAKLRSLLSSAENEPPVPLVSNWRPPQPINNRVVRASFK
Sequence of CA VA (P35218 39-305): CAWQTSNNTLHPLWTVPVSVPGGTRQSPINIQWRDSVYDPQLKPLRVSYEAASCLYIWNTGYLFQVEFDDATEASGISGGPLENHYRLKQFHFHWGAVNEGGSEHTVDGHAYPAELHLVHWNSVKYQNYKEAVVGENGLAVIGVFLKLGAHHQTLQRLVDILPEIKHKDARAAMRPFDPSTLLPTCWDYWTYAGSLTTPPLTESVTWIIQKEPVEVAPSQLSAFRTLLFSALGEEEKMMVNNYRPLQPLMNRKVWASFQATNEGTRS
Sequence of CA VII (P43166 whole entry): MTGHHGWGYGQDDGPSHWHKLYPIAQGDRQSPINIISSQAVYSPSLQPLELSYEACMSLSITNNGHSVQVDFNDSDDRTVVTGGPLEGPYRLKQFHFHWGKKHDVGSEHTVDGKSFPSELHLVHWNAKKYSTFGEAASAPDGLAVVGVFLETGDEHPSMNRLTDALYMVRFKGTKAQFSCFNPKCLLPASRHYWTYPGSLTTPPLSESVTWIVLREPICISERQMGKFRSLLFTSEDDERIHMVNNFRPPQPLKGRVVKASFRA
Sequence of CA VI (P23280 18-308): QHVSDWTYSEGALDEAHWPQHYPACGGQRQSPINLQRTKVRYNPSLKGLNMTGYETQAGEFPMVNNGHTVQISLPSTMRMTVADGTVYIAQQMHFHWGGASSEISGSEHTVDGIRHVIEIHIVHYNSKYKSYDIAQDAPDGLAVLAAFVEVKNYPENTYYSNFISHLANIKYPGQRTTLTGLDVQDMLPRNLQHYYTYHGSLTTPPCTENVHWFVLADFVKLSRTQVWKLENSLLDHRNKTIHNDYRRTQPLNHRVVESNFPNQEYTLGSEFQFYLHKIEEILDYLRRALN

SMILES | Kd (CA I) | Kd (CA VI) | Kd (CA VII) | Kd (CA VA) | Kd (CA III [1]) | Kd (CA VB) | Kd (CA IV [2]) | Kd (CA II [3]) | Kd (CA XIV) | Kd (CA II [4]) | Kd (CA XIII [5]) | Kd (CA XII) | Kd (CA IX) | Ki (CA) | IC50 [10] | other results
NS(=O)(=O)c1ccccc1Cl [Compound 1, 2-chloro-benzenesulfonamide] | 270 nM | 2600 nM | 400 nM | 320 nM | > 200000 nM | 470 nM | 1200 nM | 1130 nM | 430 nM | 560 nM | 570 nM | 420 nM | 860 nM | – | – | –
NS(=O)(=O)c1cc(Cl)c(Cl)c(S(N)(=O)=O)c1 [Compound 2, Dichlorphenamide] | – | – | – | 25 nM | 550 nM | 0.25 nM | – | – | 0.92 nM | – | 4.5 nM | – | – | – | – | –
NS(=O)(=O)c1cc2c(cc1Cl)N=CNS2(=O)=O [Compound 3, chlorothiazide] | – | 620 nM | 70 nM | 830 nM | 15000 nM | 48 nM | 310 nM | 372 nM | 250 nM | 370 nM | 39 nM | 180 nM | 130 nM | 460 nM | – | Kd (CA IV [6]): 300 nM; Kd (CA II [7]): 310 nM; Kd (CA II [8]): 250 nM
NS(=O)(=O)c1cc2c(cc1Cl)NCNS2(=O)=O [Compound 4, hydrochlorothiazide] | – | 830 nM | 870 nM | 2000 nM | 200000 nM | 200 nM | 1600 nM | – | 620 nM | – | 530 nM | 570 nM | 350 nM | 2350 nM | 7000 nM | Kd (human CA isoforms; FTSA, most CA isoforms, read-out: Kd for most CA isoforms): ~1000 nM; Ki (CA XIII [9]): 3880 nM
NS(=O)(=O)c1cc2c(cc1Cl)NC(C(Cl)Cl)NS2(=O)=O (stereo not shown) [Compound 5, trichloromethiazide] | – | – | – | – | – | – | – | – | – | – | – | – | – | – | 500 nM | –
NS(=O)(=O)c1cc2c(cc1Cl)NC(C1CC3C=CC1C3)NS2(=O)=O (stereo not shown) [Compound 6, cyclothiazide] | 940 nM | 430 nM | 500 nM | 1100 nM | – | 140 nM | 270 nM | – | 360 nM | 1200 nM | 430 nM | 170 nM | 150 nM | – | – | –
CN1C(CSCC(F)(F)F)Nc2cc(Cl)c(S(N)(=O)=O)cc2S1(=O)=O (stereo not shown) [Compound 7, polythiazide] | 250 nM | 580 nM | 100 nM | 5000 nM | > 200000 nM | 280 nM | 330 nM | – | 230 nM | – | 190 nM | 1600 nM | 100 nM | – | 20 nM | –
NS(=O)(=O)c1cc2c(cc1Cl)N=C(CSCc1ccccc1)NS2(=O)=O [Compound 8, benzthiazide] | 4300 nM | 500 nM | 15 nM | 90 nM | 4500 nM | 6.6 nM | 43 nM | 16.7 nM | 36 nM | 6.4 nM | 0.64 nM | 18 nM | 26 nM | 16 nM | – | Increase in affinity of 8 relative to 4 (human CA isoforms; CA II and CA XIII, Kd ratio): up to 1000 fold; Binding to CA II in words (CA II [4]): potent ones
C=CCSCC1Nc2cc(Cl)c(S(N)(=O)=O)cc2S(=O)(=O)N1 (stereo not shown) [Compound 9, althiazide] | 1600 nM | 490 nM | 250 nM | 1500 nM | 51000 nM | 61 nM | 330 nM | – | 51 nM | 790 nM | 150 nM | 120 nM | 120 nM | – | – | –
NS(=O)(=O)c1cc2c(cc1C(F)(F)F)NCNS2(=O)=O [Compound 10, hydroflumethiazide] | 50000 nM | 29000 nM | 17000 nM | 40000 nM | > 200000 nM | 910 nM | 24000 nM | – | 3600 nM | 17000 nM | 470 nM | 31000 nM | 1600 nM | – | – | Ki (CA III [11]): 870000 nM; Ki (CA XIII [9]): 15400 nM; Binding to CA II in words (CA II [4]): weak binders
